From US9907859B2 (priority 2010, dated 2018)

Experiment: in vivo
Conditions: mouse, po

O=C(NN1C(=O)C2C3C=CC(C4CC34)C2C1=O)c1ccc(C(F)(F)F)cc1 (centres unmarked) [ST-246, 4-trifluoromethyl-N-(3,3a,4,4a,5,5a,6,6a-octahydro-1,3-dioxo-4,6-ethenocycloprop[f]isoindol-2(1H)-yl)-benzamide]
half-life (female, BALB/c): 2.2 to 4.5 h
CL/F (female, BALB/c, 30 mg/kg): 1.7 mL/min/kg
half-life (female, BALB/c, 30 mg/kg): 2.4 h
AUC(0-t) (female, BALB/c, 30 mg/kg, AUC0-24): 292 µg·h/mL
AUC(0-t) (female, BALB/c, 30 mg/kg, AUC0-24 hr): 292 µg·h/mL
Cmax (female, BALB/c, 30 mg/kg): 37.5 µg/mL
CL/F (female, BALB/c, 100 mg/kg): 3.65 mL/min/kg
half-life (female, BALB/c, 100 mg/kg): 2.2 h
AUC(0-t) (female, BALB/c, 100 mg/kg, AUC0-24 hr): 456 µg·h/mL
Cmax (female, BALB/c, 100 mg/kg): 43.8 µg/mL
CL/F (female, BALB/c, 300 mg/kg): 7.3 mL/min/kg
half-life (female, BALB/c, 300 mg/kg): 4.1 h
AUC(0-t) (female, BALB/c, 300 mg/kg, AUC0-24 hr): 669 µg·h/mL
Cmax (female, BALB/c, 300 mg/kg): 64 µg/mL
CL/F (female, BALB/c, 1000 mg/kg): 18.9 mL/min/kg
half-life (female, BALB/c, 1000 mg/kg): 4.5 h
AUC(0-t) (female, BALB/c, 1000 mg/kg, AUC0-24 hr): 852 µg·h/mL
Cmax (female, BALB/c, 1000 mg/kg): 66 µg/mL
AUC(0-t) (female, 100 mg/kg, AUC0-24): 456 µg·h/mL
AUC(0-t) (female, 300 mg/kg, AUC0-24): 669 µg·h/mL
Cmax (female, 300 mg/kg): 64 µg/mL
AUC(0-t) (female, 500 mg/kg, AUC0-24): 515 µg·h/mL
Cmax (female, 500 mg/kg): 56.6 µg/mL
AUC(0-t) (female, 600 mg/kg, AUC0-24): 854 µg·h/mL
Cmax (female, 600 mg/kg): 95.3 µg/mL
Cmax (female, 1000 mg/kg): 66.3 µg/mL
AUC(0-t) (female, 2000 mg/kg, AUC0-24): 607 µg·h/mL
Cmax (female, 2000 mg/kg): 69.9 µg/mL
AUC(0-t) (male, BALB/c, 30 mg/kg, AUC0-24): 241 µg·h/mL
Cmax (male, BALB/c, 30 mg/kg): 30.4 µg/mL
Cmax (male, BALB/c, 100 mg/kg): 38.4 µg/mL
AUC(0-t) (male, 100 mg/kg, AUC0-24): 343 µg·h/mL
AUC(0-t) (male, 300 mg/kg, AUC0-24): 484 µg·h/mL
Cmax (male, 300 mg/kg): 48.5 µg/mL
AUC(0-t) (male, 500 mg/kg, AUC0-24): 413 µg·h/mL
Cmax (male, 500 mg/kg): 36.6 µg/mL
AUC(0-t) (male, 600 mg/kg, AUC0-24): 765 µg·h/mL
Cmax (male, 600 mg/kg): 82.8 µg/mL
Cmax (male, 1000 mg/kg): 61.1 µg/mL
AUC(0-t) (male, 2000 mg/kg, AUC0-24): 508 µg·h/mL
Cmax (male, 2000 mg/kg): 50.9 µg/mL
